*1 amine or outer side, *2 acyl side, *3 side chain or, on linkers, in order; H or OH if unused. Where a SMILES comes first, the peptide text is derived from it. [ ]: non-standard residue; d: D form. X1 = Cc1cc(O)cc(C)c1[C@H](C)[C@@H](N[*:1])C(=O)[*:2]; X3 = Cc1cc(O)cc(C)c1[C@@H](C)[C@H](N[*:1])C(=O)[*:2]; Pen = CC(C)(S)[C@H](N)C(=O)O
Tests used:
[1] = target: Mu-type opioid receptor (Cavia porcellus) (UniProt P97266); assay: In vitro bioassay data to determine the effective concentration required for antagonistic activity against Opioid receptor mu 1 in functional assay, GPI at a concentration of 82 uM; design: scale not given: the % may be the effect or the level left
Chain of Mu-type opioid receptor (Cavia porcellus) (P97266 whole entry): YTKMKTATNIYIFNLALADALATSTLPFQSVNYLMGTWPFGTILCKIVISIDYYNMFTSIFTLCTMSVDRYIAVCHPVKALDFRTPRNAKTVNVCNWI

Mu-type opioid receptor [2] = target: T1, Mu-type opioid receptor (Homo sapiens, UniProt P35372); assay: (§1) Binding affinity towards Opioid receptor mu 1 using [3H]- CTOP as radioligand
T1 sequence (P35372 whole entry): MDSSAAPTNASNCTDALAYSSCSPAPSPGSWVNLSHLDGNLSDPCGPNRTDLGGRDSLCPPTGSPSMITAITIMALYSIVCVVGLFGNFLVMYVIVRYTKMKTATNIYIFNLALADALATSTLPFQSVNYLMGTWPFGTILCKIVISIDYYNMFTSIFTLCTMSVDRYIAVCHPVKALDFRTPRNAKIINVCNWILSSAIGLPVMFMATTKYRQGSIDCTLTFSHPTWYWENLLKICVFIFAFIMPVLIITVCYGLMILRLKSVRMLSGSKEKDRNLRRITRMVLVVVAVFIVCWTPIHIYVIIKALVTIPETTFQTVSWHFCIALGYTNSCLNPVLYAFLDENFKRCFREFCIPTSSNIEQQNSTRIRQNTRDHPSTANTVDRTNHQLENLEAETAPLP

Mu-type opioid receptor [3] = target: Mu-type opioid receptor (Cavia porcellus, UniProt P97266); assay: In vitro bioassay data to determine the effective concentration required for antagonistic activity against Opioid receptor mu 1 in functional assay, GPI
Chain of Mu-type opioid receptor (Cavia porcellus, UniProt P97266) (P97266 whole entry): as the sequence (P97266 whole entry) above

Mu-type opioid receptor [4] = target: T1, Mu-type opioid receptor; assay: as §1; remark: listed apart in the source
[5] = target: Delta-type opioid receptor (Mus musculus, UniProt P32300); assay: In vitro bioassay data to determine the effective concentration required for antagonistic activity against Opioid receptor delta 1 in functional assay, MVD
Chain of Delta-type opioid receptor (Mus musculus, UniProt P32300) (P32300 whole entry): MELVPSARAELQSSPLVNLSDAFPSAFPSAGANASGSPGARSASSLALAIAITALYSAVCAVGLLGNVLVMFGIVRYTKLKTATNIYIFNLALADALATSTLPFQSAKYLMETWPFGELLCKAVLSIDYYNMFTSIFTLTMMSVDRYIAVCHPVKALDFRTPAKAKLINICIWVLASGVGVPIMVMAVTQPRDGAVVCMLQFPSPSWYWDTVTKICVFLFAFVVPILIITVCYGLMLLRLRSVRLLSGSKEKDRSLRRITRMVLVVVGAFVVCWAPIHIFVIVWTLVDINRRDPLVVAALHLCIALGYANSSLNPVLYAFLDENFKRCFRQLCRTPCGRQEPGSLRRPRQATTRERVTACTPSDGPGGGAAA

[6] = target: Delta-type opioid receptor (Rattus norvegicus, UniProt P33533); assay: Binding affinity towards Opioid receptor delta 1 using [3H]- [p-CIPhe4] DPDPE as radioligand
Chain of Delta-type opioid receptor (Rattus norvegicus, UniProt P33533) (P33533 whole entry): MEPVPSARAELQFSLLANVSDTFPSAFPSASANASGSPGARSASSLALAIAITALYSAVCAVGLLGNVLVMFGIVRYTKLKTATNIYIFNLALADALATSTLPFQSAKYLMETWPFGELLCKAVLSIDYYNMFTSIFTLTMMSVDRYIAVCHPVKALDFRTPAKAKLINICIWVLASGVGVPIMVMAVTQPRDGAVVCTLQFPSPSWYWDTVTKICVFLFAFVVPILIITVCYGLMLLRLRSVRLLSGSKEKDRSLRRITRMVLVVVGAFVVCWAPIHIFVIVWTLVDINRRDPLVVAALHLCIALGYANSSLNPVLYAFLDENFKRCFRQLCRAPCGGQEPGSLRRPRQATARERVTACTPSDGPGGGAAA

[7] = target: Mu-type opioid receptor (Cavia porcellus) (UniProt P97266); assay: In vitro bioassay data to determine the effective concentration required for antagonistic activity against Opioid receptor mu 1 in functional assay, GPI at a concentration of 60 uM; design: scale not given: the % may be the effect or the level left

SMILES: Cc1cc(O)cc(C)c1[C@H](C)[C@@H](N)C(=O)N[C@H](C(=O)NCC(=O)N[C@@H](Cc1ccccc1)C(=O)N[C@H](C(=O)O)C(C)(C)S)C(C)(C)S (H-[X1][Pen]GF[Pen]-OH)
- Activity [1]: 75%
- Activity (Mu-type opioid receptor [2]): 0%

SMILES: Cc1cc(O)cc(C)c1[C@@H](C)[C@@H](N)C(=O)N[C@H]1C(=O)NCC(=O)N[C@@H](Cc2ccccc2)C(=O)N[C@@H](C(=O)O)C(C)(C)SSC1(C)C
- EC50 (Mu-type opioid receptor [3]): 50 µM
- IC50 (Mu-type opioid receptor [4]): 77 µM
- EC50 [5]: 2200 nM
- IC50 [6]: 3.5 µM

SMILES: Cc1cc(O)cc(C)c1[C@@H](C)[C@H](N)C(=O)N[C@H](C(=O)NCC(=O)N[C@@H](Cc1ccccc1)C(=O)N[C@H](C(=O)O)C(C)(C)S)C(C)(C)S (H-[X3][Pen]GF[Pen]-OH)
- Activity [7]: 0%

— ChEMBL document CHEMBL1145107, “Peptide science: exploring the use of chemical principles and interdisciplinary collaboration for understanding life processes” (J Med Chem, 2003)
